Data on 7 compounds can be found in PubChem BioAssay AID1259407 (Chemical Carcinogenesis Research Information System (CCRIS), 2018).

This data set has as its system CCRIS mutagenicity, Ames/micronucleus/aberration tests. Briefly: CCRIS mutagenicity studies.
Setting [1] is: Test System: AMES SALMONELLA TYPHIMURIUM, Strain/Indicator: TA98, Metabolic Activation: NONE, Method: PREINCUBATION
[2] abbreviates: Test System: AMES SALMONELLA TYPHIMURIUM, Strain/Indicator: TA100, Metabolic Activation: NONE, Method: PREINCUBATION
[3] abbreviates: Test System: AMES SALMONELLA TYPHIMURIUM, Strain/Indicator: TA1535, Metabolic Activation: NONE, Method: PREINCUBATION
[4] abbreviates: Test System: AMES SALMONELLA TYPHIMURIUM, Strain/Indicator: TA1537, Metabolic Activation: NONE, Method: PREINCUBATION
The mark [5] stands for this setting: Test System: AMES SALMONELLA TYPHIMURIUM, Strain/Indicator: TA98, Metabolic Activation: NONE, Method: STANDARD PLATE.
Setting [6] is: Test System: AMES SALMONELLA TYPHIMURIUM, Strain/Indicator: TA100, Metabolic Activation: NONE, Method: STANDARD PLATE.

Active and inactive are the calls of the source. How the calls were made is not given here.

`OCC(CBr)(CBr)CBr`: the mutagenic call runs as follows: (Test System: AMES SALMONELLA TYPHIMURIUM, Strain/Indicator: TA98, Metabolic Activation: HAMSTER, LIVER, S-9, AROCLOR 1254 (10%), Method: PREINCUBATION) “inactive; negative”; under setting [1], “inactive; negative”; (Test System: AMES SALMONELLA TYPHIMURIUM, Strain/Indicator: TA98, Metabolic Activation: RAT, LIVER, S-9, AROCLOR 1254 (10%), Method: PREINCUBATION) “inactive; negative”; (Test System: AMES SALMONELLA TYPHIMURIUM, Strain/Indicator: TA100, Metabolic Activation: HAMSTER, LIVER, S-9, AROCLOR 1254 (10%), Method: PREINCUBATION) “inactive; negative”; under setting [2], “inactive; negative”; (Test System: AMES SALMONELLA TYPHIMURIUM, Strain/Indicator: TA100, Metabolic Activation: RAT, LIVER, S-9, AROCLOR 1254 (10%), Method: PREINCUBATION) “inactive; negative”. The mutagenic call runs as follows: (Test System: AMES SALMONELLA TYPHIMURIUM, Strain/Indicator: TA1535, Metabolic Activation: HAMSTER, LIVER, S-9, AROCLOR 1254 (10%), Method: PREINCUBATION) “active; positive”; under setting [3], “inactive; negative”; (Test System: AMES SALMONELLA TYPHIMURIUM, Strain/Indicator: TA1535, Metabolic Activation: RAT, LIVER, S-9, AROCLOR 1254 (10%), Method: PREINCUBATION) “inactive; negative”; (Test System: AMES SALMONELLA TYPHIMURIUM, Strain/Indicator: TA1537, Metabolic Activation: HAMSTER, LIVER, S-9, AROCLOR 1254 (10%), Method: PREINCUBATION) “inactive; negative”; under setting [4], “inactive; negative”; (Test System: AMES SALMONELLA TYPHIMURIUM, Strain/Indicator: TA1537, Metabolic Activation: RAT, LIVER, S-9, AROCLOR 1254 (10%), Method: PREINCUBATION) “inactive; negative”.
On to `O=[N+]([O-])c1cc2[nH]c3ccc4ccccc4c3c2c2cc(O)ccc12`, for which the mutagenic call is, setting by setting: under setting [5], “inactive; negative”; (Test System: AMES SALMONELLA TYPHIMURIUM, Strain/Indicator: TA98, Metabolic Activation: RAT, LIVER, S-9, 3-METHYLCHOLANTHRENE, Method: STANDARD PLATE) “active; positive”; under setting [6], “active; positive”; (Test System: AMES SALMONELLA TYPHIMURIUM, Strain/Indicator: TA100, Metabolic Activation: RAT, LIVER, S-9, 3-METHYLCHOLANTHRENE, Method: STANDARD PLATE) “active; positive”.
Regarding `CC(=C/C=C/C(C)=C/C=C/C=C(C)/C=C/C=C(C)/C=C/C(=O)O)/C=C/C(=O)O`, the mutagenic call is “inactive; negative” (Test System: AMES SALMONELLA TYPHIMURIUM, Strain/Indicator: TA97, Metabolic Activation: NONE, Method: PREINCUBATION); “inactive; negative” (Test System: AMES SALMONELLA TYPHIMURIUM, Strain/Indicator: TA97, Metabolic Activation: S-9, Method: PREINCUBATION); “inactive; negative” (Test System: AMES SALMONELLA TYPHIMURIUM, Strain/Indicator: TA102, Metabolic Activation: NONE, Method: PREINCUBATION); “inactive; negative” (Test System: AMES SALMONELLA TYPHIMURIUM, Strain/Indicator: TA102, Metabolic Activation: S-9, Method: PREINCUBATION).
Regarding `C1COCOC1`, the mutagenic call (Test System: AMES SALMONELLA TYPHIMURIUM, Strain/Indicator: TA98, Metabolic Activation: HAMSTER, LIVER, S-9, AROCLOR 1254, Method: PREINCUBATION) was “inactive; negative”; the mutagenic call under setting [1] is “inactive; negative”; the mutagenic call (Test System: AMES SALMONELLA TYPHIMURIUM, Strain/Indicator: TA98, Metabolic Activation: RAT, LIVER, S-9, AROCLOR 1254, Method: PREINCUBATION) was “inactive; negative”; the mutagenic call (Test System: AMES SALMONELLA TYPHIMURIUM, Strain/Indicator: TA100, Metabolic Activation: HAMSTER, LIVER, S-9, AROCLOR 1254, Method: PREINCUBATION) is “inactive; negative”; the mutagenic call under setting [2] is “inactive; negative”; the mutagenic call (Test System: AMES SALMONELLA TYPHIMURIUM, Strain/Indicator: TA100, Metabolic Activation: RAT, LIVER, S-9, AROCLOR 1254, Method: PREINCUBATION) was “inactive; negative”. Also, the mutagenic call is “inactive; negative” (Test System: AMES SALMONELLA TYPHIMURIUM, Strain/Indicator: TA1535, Metabolic Activation: HAMSTER, LIVER, S-9, AROCLOR 1254, Method: PREINCUBATION); “inactive; negative” under setting [3]; “inactive; negative” (Test System: AMES SALMONELLA TYPHIMURIUM, Strain/Indicator: TA1535, Metabolic Activation: RAT, LIVER, S-9, AROCLOR 1254, Method: PREINCUBATION); “inactive; negative” (Test System: AMES SALMONELLA TYPHIMURIUM, Strain/Indicator: TA1537, Metabolic Activation: HAMSTER, LIVER, S-9, AROCLOR 1254, Method: PREINCUBATION); “inactive; negative” under setting [4]; “inactive; negative” (Test System: AMES SALMONELLA TYPHIMURIUM, Strain/Indicator: TA1537, Metabolic Activation: RAT, LIVER, S-9, AROCLOR 1254, Method: PREINCUBATION).
For `O=C1c2ccccc2C([N+](=O)[O-])c2ccccc21`, the mutagenic call under setting [5] was “inactive; negative”; the mutagenic call (Test System: AMES SALMONELLA TYPHIMURIUM, Strain/Indicator: TA98, Metabolic Activation: RAT, LIVER, S-9, AROCLOR 1254, Method: STANDARD PLATE) was “inactive; negative”; the mutagenic call under setting [6] is “inactive; negative”; the mutagenic call (Test System: AMES SALMONELLA TYPHIMURIUM, Strain/Indicator: TA100, Metabolic Activation: RAT, LIVER, S-9, AROCLOR 1254, Method: STANDARD PLATE) was “inactive; negative”.
In the case of `ClCc1c2ccccc2c(Cl)c2ccccc12`, under setting [6], the mutagenic call is “active; positive”.
As for `CC(C)=C/C(C)=N/Nc1nncc2ccccc12`, the mutagenic call is, setting by setting: under setting [6], “active; positive”; (Test System: AMES SALMONELLA TYPHIMURIUM, Strain/Indicator: TA100, Metabolic Activation: RAT, LIVER, S-9, PHENOBARBITAL, Method: STANDARD PLATE) “active; positive”; (Test System: UDS RAT HEPATOCYTES, Strain/Indicator: THY INCORP, Metabolic Activation: NONE, Method: AUTORADIOGRAPHY) “inactive; negative”.
